How the values were obtained:
endothelin receptors = conditions: cited from earlier work; for cardiac function and myocardial relaxation: at 1 h; for difference compared to placebo-treated animals: at 24 h
[1] = system: pig model of closed-chest coronary balloon occlusion/reperfusion; assay: Vascular/cardiac DNA-oxidative damage (8-hydroxyguanosine staining); assay type: in vivo, swine; conditions: […] post-reperfusion
Method: (§1) Paraffin-embedded LAD and ischemic myocardial tissue of animals sacrificed 2.5 h post-reperfusion were cut into 5-µm-thick for 8-hydroxyguanosine staining (Abcam ab48508), a measurement indicative of oxidative stress-induced DNA-damage. In addition, optimal cutting temperature (OCT)-embedded ischemic myocardial tissue of animals sacrificed 2.5 h post-reperfusion was stained for neutrophils detection (anti-neutrophil elastase; Abcam). Staining was calculated by a single blinded observer from an average of 5-fields/animal as % of stained area. Images were captured by Nikon Eclipse 80i microscope and digitized by Retiga 1300i Fast camera.

RyR2 = assay: Real-time PCR of calcium handling receptor mRNA; assay type: in vivo, swine
Method: (§2) Tissue samples obtained from the IM (2.5 h post-reperfusion)/scar (3 weeks post-MI) and NIM of all animals were pulverized and homogenized in Tripure® or lysis buffer for RNA and protein isolation, respectively.
(§3) Transcriptomic analysis: It was analyzed by real-time PCR (Applied Biosystems) mRNA levels for: 1) apoptosis-related markers [extrinsic-(Fas Receptor/CD95 and caspase-8), intrinsic-(Bax, Bcl2, and P53) pathways and caspase-3]; 2) intracellular calcium handling receptors [sarcoendoplasmic reticulum Ca^2+ATPase 2 (SERCA2) and the ryanodine receptor (RyR2)]; and 3) fibrous tissue formation (collagen, Smad2 and Smad3). The threshold cycle values were determined and normalized to the housekeeping gene 18S rRNA.

SERCA2 = assay: Real-time PCR of calcium handling receptor mRNA; assay type: in vivo, swine
Method: as §2, §3

[2] = system: pig model of closed-chest coronary balloon occlusion/reperfusion; assay: Transthoracic echocardiography (LVEF, SF); assay type: in vivo, swine
Method: Transthoracic echocardiography assessment was performed in all animals before inducing ischemia (baseline), after 75 min of ischemia (prior β-OH-S infusion), 2.5 h post-reperfusion and 3 weeks post-MI using an echocardiographyc system Phillips iE33 equipped with a S5-1 Sector Array transducer. Left ventricle ejection fraction (LVEF) and shortening fraction (SF) were measured in the short-axis M-mode right parasternal projection in a plane below the mitral valves and perpendicular to the LV (left ventricle).

[3] = system: pig model of closed-chest coronary balloon occlusion/reperfusion; assay: Neutrophil detection in ischemic myocardium (anti-neutrophil elastase staining); assay type: in vivo, swine; conditions: […] post-reperfusion, p<0.05
Method: as §1

[4] = system: pig model of closed-chest coronary balloon occlusion/reperfusion; assay: Reperfusion-related arrhythmias and hemodynamic monitoring; assay type: in vivo, swine
Method: This hyperlipidemic diet contains 24.82% proteins, 64.20% carbohydrates, 10.98% fats and 16,834.7 kJ. […] After this 10 day diet period animals underwent a closed-chest 90 min mid-left anterior descending (LAD) coronary balloon occlusion. […] At minute 90, the balloon was deflated to achieve coronary artery reperfusion. […] The incidence of reperfusion-related arrhythmias during the first 2.5 h upon balloon deflation was documented in all animals. Animals had continuous ECG and hemodynamic monitoring throughout all procedures.

[5] = system: mitochondria isolated from the ischemic myocardium; assay: Mitochondrial membrane potential by flow cytometry (JC-1); assay type: in vivo, swine; conditions: […] of reperfusion, p<0.05
Method: Mitochondria were isolated from the ischemic myocardium of pigs subjected to 2.5 h of reperfusion as previously reported (Boehm et al. 2001 Am J Physiol Heart Circ Physiol 280: H977-983). Mitochondrial membrane potential (Δψm) was measured by flow cytometry using the ratiometric dye 5,5',6,6'-tetrachloro-1,1',3,3'-tetraethylbenzimidazol carbocyanine iodide (JC-1; Molecular Probes). Values were expressed as red fluorescence activity. Isolated mitochondria treated with valinomycin (Sigma), which decreases Δψm, were used as control.

RhoA = RhoA in total and cytosolic-membrane fractions of cardiac tissue (immunoblotting); assay type: in vivo, swine; conditions: for total amount of RhoA: myocardium, […] post-reperfusion and 3 weeks post-MI
Method: RhoA (Santa Cruz) was determined in total and cytosolic-membrane fractions of jeopardized cardiac tissue of all animals as previously described by Vilahur G 2009 (ad supra).

[6] = system: pig model of closed-chest coronary balloon occlusion/reperfusion; assay: Morphometric determination of infarct size (Evan's Blue / TTC); assay type: in vivo, swine; conditions: single loading dose 0.3 mg/kg i.v. prior reperfusion; p<0.05
Method: This hyperlipidemic diet contains 24.82% proteins, 64.20% carbohydrates, 10.98% fats and 16,834.7 kJ. […] After this 10 day diet period animals underwent a closed-chest 90 min mid-left anterior descending (LAD) coronary balloon occlusion. […] At minute 90, the balloon was deflated to achieve coronary artery reperfusion. […] The incidence of reperfusion-related arrhythmias during the first 2.5 h upon balloon deflation was documented in all animals. Animals had continuous ECG and hemodynamic monitoring throughout all procedures. 2.5 h post-reperfusion Evan's Blue dye was injected in anesthetized animals through the left atrium to outline the area at risk (AAR) after which the hearts of the animals were arrested with potassium chloride and rapidly excised. Hearts were sectioned into 6 transverse slices parallel to the atrioventricular ring. Consecutive slices were alternatively collected for infarct size analysis (TTC; triphenyltetrazolium chloride staining) and molecular studies of the ischemic myocardium (IM) and non-ischemic myocardium (NIM).

[7] = system: Akt/eNOS signaling pathway; assay: Akt/eNOS signaling (Western blot) in myocardium and coronary arteries; assay type: in vivo, swine
Method: (§4) Western Blot analysis: Protein levels of: 1) apoptosis markers (truncated-caspase-3); 2) cardioprotective kinases [PKC-ε and PKC-ε phosphorylated at Ser^729 (Santa Cruz) and Akt/PKB (Santa Cruz) and Akt phosphorylated at Ser^473 (Cell signaling)]; 3) total eNOS and eNOS phosphorilated at Ser^1177 (Cell Signaling); and 4) fibrosis [TGFP type II receptor (TPRII; Abcam) and phosphorylated-Smad2/3 (Ser^423/425; Santa Cruz)] were assessed.
In addition, 3 weeks post-MI, the coronary arteries of all animals were isolated, cleaned of surrounding tissue and snap frozen for further analysis of coronary phosphorylated-eNOS protein expression.

[8] = system: apoptosis-related markers; assay: Apoptosis-related markers in ischemic myocardium (real-time PCR, Western blot, TUNEL); assay type: in vivo, swine
Method: as §2, §3, §4
Isolated mitochondrial extracts were incubated against Bcl-2 phosphorylated at Ser^87.

oxLDL = assay: HDL-antioxidant activity (ability of HDL to reverse oxidation of LDL); assay type: in vivo, swine; conditions: HDL isolated […] post-reperfusion; p<0.05
Method: (§5) Blood samples were collected at 2.5 h post-reperfusion and 3 weeks post-MI to evaluate lipoprotein resistance to oxidation. The inventors firstly assessed HDL-antioxidant activity by a method based on the ability of HDL to reverse oxidation of LDL. Results were expressed as the percentage of total oxidized LDL considering that control oxLDL is 100%. In addition, resistance of LDL against copper induced in vitro oxidation was also determined in EDTA-blood samples as previously described. The inventors also determined the lipid peroxide content of oxidized-LDL by assessing thiobarbituric-acid-reactive substances (TBARS).

[9] = system: canine hepatic ischemia/reperfusion model; conditions: given prior to reperfusion; cited from earlier work
Na^+/H^+ exchange system = Na^+/H^+ exchange system (Homo sapiens, UniProt P19634); conditions: recent clinical trial; cited from earlier work
[10] = system: canine cardiac ischemia model; conditions: infused during reperfusion; cited from earlier work
[11] = cited from earlier work; for infarct size: given pre-ischemia
[12] = system: TβRII/Smad2/3 signaling pathway; assay: Reparative fibrosis of the forming scar (TβRII/Smad2/3, myofibroblasts, collagen); assay type: in vivo, swine
Method: as §3, §4
(§6) To that end, serially cut 5 µm sections from OCT-embedded samples were stained for lipids (oil red-O, ORO) and interstitial collagen (Sirius Red). Images were captured with a Nikon eclipse 80i microscope and digitalized by a Retiga-1300i. Staining was calculated by a single blinded observer from an average of 5-fields/sample as content (%)=[positive stained area/(total tissue area- vascular luminal areas)]x100 using ImageJ®.
In addition, myofibroblasts detection in the scar tissue was performed by double staining with mouse monoclonal vimentin (Dako) and rabbit polyclonal alpha-SMA 1:50 (Abeam). Alexa fluor 488 donkey anti-mouse and alexa fluor 546 goat anti-rabbit were used as secondary antibodies, respectively and Hoechst for nuclear staining. Images were captured by confocal microscopy (20x).

PKCε = PKCε expression/activation in the forming scar (Western blot); assay type: in vivo, swine; conditions: scar tissue, compared to placebo-control animals
Method: as §4

[13] = system: pig model of closed-chest coronary balloon occlusion/reperfusion; assay: Myocardial lipotoxicity: oil red-O staining and lipid characterization (TLC) of scar and NIM; assay type: in vivo, swine; conditions: 3 weeks post-MI
Method: as §6

LDL = assay: Resistance of LDL against copper induced in vitro oxidation and TBARS; assay type: in vivo, swine; conditions: 3 week oral treatment; p<0.05
Method: as §5

[14] = ischemic myocardium, […] post-reperfusion

Chain of Na^+/H^+ exchange system (P19634 whole entry, the tested form may be a part): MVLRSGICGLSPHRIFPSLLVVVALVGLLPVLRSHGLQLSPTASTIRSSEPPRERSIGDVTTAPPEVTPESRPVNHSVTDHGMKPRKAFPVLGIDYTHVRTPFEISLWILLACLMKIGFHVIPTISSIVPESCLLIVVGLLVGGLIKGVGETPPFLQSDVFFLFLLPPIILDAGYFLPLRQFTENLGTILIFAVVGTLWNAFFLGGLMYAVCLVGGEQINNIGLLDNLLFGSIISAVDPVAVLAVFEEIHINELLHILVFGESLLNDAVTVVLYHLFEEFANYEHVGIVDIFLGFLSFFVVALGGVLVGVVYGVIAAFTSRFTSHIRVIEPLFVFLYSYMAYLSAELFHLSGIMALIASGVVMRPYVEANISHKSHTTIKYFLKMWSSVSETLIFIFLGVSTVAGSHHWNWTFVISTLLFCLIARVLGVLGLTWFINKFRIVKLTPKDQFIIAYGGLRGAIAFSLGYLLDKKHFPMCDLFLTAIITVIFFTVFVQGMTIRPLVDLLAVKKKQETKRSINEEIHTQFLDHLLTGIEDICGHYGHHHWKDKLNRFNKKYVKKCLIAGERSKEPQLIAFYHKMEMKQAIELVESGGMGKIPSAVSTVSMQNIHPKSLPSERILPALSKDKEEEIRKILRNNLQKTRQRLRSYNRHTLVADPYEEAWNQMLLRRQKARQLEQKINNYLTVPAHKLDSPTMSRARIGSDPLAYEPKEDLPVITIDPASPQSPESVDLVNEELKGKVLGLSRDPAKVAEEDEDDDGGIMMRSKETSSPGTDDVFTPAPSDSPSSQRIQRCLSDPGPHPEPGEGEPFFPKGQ

BQ-123
cardiac function and myocardial relaxation (endothelin receptors): significantly better
difference compared to placebo-treated animals (endothelin receptors): no longer evident

CCC(C)(C)C(=O)OC1CC(C)C=C2C=CC(C)C(CCC(O)CC(O)CC(=O)O)C21 (stereo not drawn) [β-OH-S, β-hydroxy acid derivative of simvastatin]
reperfusion-related oxidative DNA damage ([1]; coronary artery): absence of DNA oxidative damage
reperfusion-related oxidative DNA damage ([1]; ischemic myocardial tissue): absence of DNA oxidative damage
RyR2 mRNA (RyR2; NIM): 0.2±0.07 RyR2/18S rRNA
RyR2 mRNA (RyR2; ischemic myocardium): 0.14±0.03 RyR2/18S rRNA
SERCA2 mRNA (SERCA2; NIM): 1.5±0.3 SERCA/18S rRNA
SERCA2 mRNA (SERCA2; ischemic myocardium): 1.9±0.5 SERCA/18S rRNA
LVEF improvement ([2]; […] after reperfusion): 9.4%
SF improvement ([2]; […] after reperfusion): 6.0%
attenuation of neutrophils infiltration as compared to vehicle/control [3]: ~70%
incidence of reperfusion-related ventricular arrhythmias ([4]; first […] upon balloon deflation, 3 out of 12): 25 % animals
hemodynamic parameters (heart rate and mean blood pressure) ([4]; throughout the study): not affected
Δψm relative to vehicle/control [5]: 2 times
RhoA membrane translocation (activation), membrane-to-cytosol ratio (RhoA; intravenous infusion, ischemic myocardium, […] post-reperfusion, p<0.001 vs control): markedly decreased
total amount of RhoA (RhoA): unchanged
salvage of the LV-at-risk as compared to reperfusion alone [6]: 40%
P-Akt/P-eNOS pathway ([7]; ischemic myocardium, acute administration): activating
mitochondrial Bcl-2 activation [8, 14]: diminished
truncated caspase-3 expression [8, 14]: reduced
apoptotic cell counts (TUNEL staining) ([8]; ischemic myocardium, compared to vehicle/control, data not shown): low apoptotic cell counts
upregulation of genes of death receptor- and mitochondrial-related apoptotic pathways ([8]; jeopardized myocardium, […] post-reperfusion): prevented the upregulation
higher HDL antioxidant activity against LDL oxidation relative to controls (oxLDL): 25%

Nc1ncnc2c1ncn2[C@@H]1O[C@H](CO)[C@@H](O)[C@H]1O [adenosine, Adenosine]
aspartate aminotransferase (AST) and alanine transaminase (ALT) [9]: attenuated the rise
hepatic glutathione stores [9]: restored
neutrophil accumulation and superoxide radical production [9]: inhibition

CC(C)c1ccc(C(=O)NC(=N)N)cc1S(C)(=O)=O [Cariporide]
reperfusion injury (improved left ventricular (LV) dysfunction) (Na^+/H^+ exchange system): attenuation of reperfusion injury

BQ-788
cardiac function and myocardial relaxation (endothelin receptors): significantly better
difference compared to placebo-treated animals (endothelin receptors): no longer evident

CCNC(=O)[C@H]1O[C@@H](n2cnc3c(N)nc(NCCc4ccc(CCC(=O)O)cc4)nc32)[C@H](O)[C@@H]1O [CGS-21680]
Bax [10]: downregulated
Bcl-2 levels [10]: upregulated
neutrophil accumulation in the perinecrotic myocardium [10]: reduced

O=C(NCCO[N+](=O)[O-])c1cccnc1 [nicorandil]
infarct size [11]: reduced infarct size in a dose-dependent manner

CCC(C)(C)C(=O)O[C@H]1C[C@@H](C)C=C2C=C[C@H](C)[C@H](CC[C@@H]3C[C@@H](O)CC(=O)O3)[C@H]21 [Simvastatin, (1S,3R,7S,8S,8aR)-8-{2-[(2R,4R)-4-hydroxy-6-oxotetrahydro-2H-pyran-2-yl]ethyl}-3,7-dimethyl-1,2,3,7,8,8a hexahydronaphthalen-1-yl 2,2-dimethylbutanoate]
LVEF and SF improvement ([2]; up to 3 weeks post-MI, oral simvastatin): persisted
total amount of RhoA (RhoA): unchanged
decrease of RhoA membrane translocation (RhoA; scar, after the 3-week oral treatment, p<0.001 vs control): persisted
Smad3 mRNA levels ([12]; different cardiac regions, 3 weeks post-MI): no changes
collagen fibrils deposition ([12]; healing scar, compared to control animals and NIM): higher
α-SMA/vimentin positive myofibroblasts ([12]; healing scar, data not shown): higher detection
Smad2/3 (downstream effector of TβRII) ([12]; scar area, 3 weeks post-MI): activation
TβRII protein expression ([12]; scar area, 3 weeks post-MI): marked and significant increase
Smad2 gene expression ([12]; scar tissue, 3 weeks post-MI): significantly upregulated
PKCε expression and activation (PKCε): enhanced both the expression and activation
P-eNOS ([7]; coronary arteries at 3-weeks post-MI): enhanced
P-Akt/P-eNOS pathway activation ([7]; evolving scar up to 3 weeks post-AMI): persisted
free-cholesterol content ([13]; different cardiac zones): No differences
less cholesteryl-ester accumulation as compared to placebo-controls ([13]; forming scar): 50%
decrease in TBARS levels as compared to the experimental day (LDL): 32%
prolongation of the lag time as compared to control/placebo animals (LDL): 4 times

CS(=O)(=O)O.Cc1cccc2c1cc(C(=O)N=C(N)N)n2C [SM-20550]
effect on infarct size ([11]; given post-ischemia): beneficial
infarct size [11]: reduced infarct size in a dose-dependent manner
